Where a SMILES comes first, the peptide text is derived from it. [ ]: non-standard residue; d: D form.
Tests used:
[1] = test system: spontaneously hypertensive rats (SHR); test: Fibroblast proliferation in cardiac tissue of SHR, Ki67 immunohistochemistry; format: in vivo, rat; conditions: SHR, 1,200 ng/kg/min, 14 days
Description: Experimental animal model. All procedures were performed in accordance with the Guide for the Care and Use of Laboratory Animals published by the U.S. National Institutes of Health (NIH Publication 85 23, 1985) and approved by our Institutional Bioethics Committee. The animals were housed under the continuous professional monitoring of the Medical Veterinary staff in the animal facility of the Pontificia Universidad Católica de Chile, under the following conditions: 12-h light-dark cycle; 21° C. ambient temperature; 50% humidity; adequate ventilation; noise-free environment; and food and water ad libitum. […] Systolic blood pressure (SBP), diastolic blood pressure (DBP) and body weight (BW) were measured at the end of the treatment period and the animals were then sacrificed.
Immunohistochemistry for Ki67. Proliferation of fibroblast, another marker of fibrosis, was assessed by measuring the presence of Ki-67 positive nuclei. […] Two blinder researchers counted manually positive cells in 10 high-power fields (×40). […] The percentage of positive Ki67 cells was calculated. As observed with the above cardiac fibrosis marker, collagen content assessed by picrosirius red staining, in hypertensive SHR, an increase in fibroblast with Ki-67 positive nuclei were found, confirming the occurrence of cardiac fibrosis.

[2] = test system: neonatal rat ventricular myocytes (NRVM); test: Cardiomyocyte death by simulated ischemia/reperfusion (LDH release, procaspase 3 cleavage); format: cell-based
Description: Neonatal rat ventricular myocytes (NRVM) were isolated from one- to three-day-old Sprague Dawley rats. Cells were pre-plated to discard non-myocyte cells and the myocyte-enriched fraction was plated on gelatin-precoated 35 mm dishes and grown in DMEM/M199 (4:1) medium with 10% (w/v) fetal bovine serum (FBS) and […] bromodeoxyuridine for 24 h before the experiments. Ischemia was induced by incubating the cardiomyocytes in ischemia-mimicking solution (ischemic medium) containing HEPES 5 mM, 2-deoxy-D-glucose 10 mM, NaCl 139 mM, KCl 12 mM, MgCl2 0.5 mM, CaCl2 1.3 mM and lactic acid 20 mM, pH 6.2, under O2<1%, 5% CO2 and 95% nitrogen at 37° C. for 8 h. Subsequently for simulated reperfusion, ischemia-mimicking solution was replaced by DMEM/M199 (4:1) containing 10% (w/v) FBS and NRVM were incubated for 16 h in 95% air and 5% CO2. Parallel NRVM were assigned to a control group which was exposed to normoxic conditions in a control medium containing (in mM) 5 HEPES 5 mM, D-glucose 23 mM, NaCl 139 mM, KCl 4.7 mM, MgCl2 0.5 mM, CaCl2 1.3 mM, pH 7.4 under 95% air and 5% CO2 for 8 h. Then, control medium was replaced with DMEM/M199 (4:1) containing 10% (w/v) FBS under 95% air and 5% CO2 for 16 h.
For the evaluation of necrosis, the activity of lactate dehydrogenase (LDH) was measured spectrophotometrically at 490 nm in samples of the culture medium after normoxia (control) and sl/R both at 8 h and 16 h, using the kit CytoTox 96® Non-Radioactive Cytotoxicity Assay, Promega (Corp., Madison, WI, USA), according to the manufacturer's instructions. Apoptosis was evaluated by measuring procaspase 3 cleavage to caspase 3 by western blotting.

[3] = Stability in human serum determined by HPLC; format: in vitro ADME; conditions: male, 48 h incubation, 37° C., read-out: degradation after incubation with human serum
Description: The retro-inverse peptides were dissolved in PBS to obtain a final concentration of 1 mM. From this stock, an aliquot of 50 μL was taken and diluted to 450 μL of human serum (Sigma Aldrich from human male AB plasma, USA origin, sterile-filtered) at 37° C. under agitation, to obtain an initial concentration of […] and incubated for 48 h. Aliquots of 50 μL were extracted at 0, 5, 10 min and 1, 3, 6, 24 and 48 h and added to 200 μL of methanol at 4° C. for 30 min to precipitate serum proteins. The samples were then centrifuged at 13,000 g in Hermle Cooling Centrifuge Z 326 K 311.00 V01 at 4° C. for 30 min. The supernatants (approximately 200 μL) were obtained, placed in vials, and then analyzed by HPLC. All analyzes were performed on the Perkin Elmer auto sampler flexo HPLC, using a reverse phase 4.6×100 mm column with a particle size of […] (Waters XBridge Peptide BEH C18 Column). Mobile phase A was 100% acetonitrile and phase B was TFA 0.0004% in Milli-Q water. The initial composition of eluent was 5% A and 95% B for 1 min and then a linear gradient to reach 100% A in 19 min and then return to the initial composition in 4 min, with a total run time of 25 min. The eluent flow was 0.9 mL/min and the temperature of the column was adjusted to 26° C. L measurement was performed at a UV signal of 220 nm wavelength. Where 50 μL was injected per sample. Peptides were identified based on their retention time in the respective chromatogram obtained in the Chromera-HPLC flexar program.

CC[C@@H](C)[C@@H](NC(=O)[C@@H](Cc1c[nH]cn1)NC(=O)[C@H]1CCCN1C(=O)[C@@H](Cc1ccccc1)NC(=O)[C@H](N)Cc1c[nH]cn1)C(=O)N[C@H](Cc1ccc(O)cc1)C(=O)N[C@@H](C(=O)N[C@H](CCCNC(=N)N)C(=O)N[C@H](CC(=O)O)C(=O)O)C(C)C [retro-inverse angiotensin-(1-9), NH2-^DH^DF^DP^DH^DI^DY^DV^DR^DD-COOH] (H-[dH][dF][dP][dH][dI][dY][dV][dR][dD]-OH)
increase of fibroblast with Ki-67 positive nuclei induced by hypertension [1]: reversed the increase
cardiomyocyte apoptosis induced by ischemia reperfusion (procaspase 3 cleavage) ([2]; 10 μM peptide, western blotting): inhibited
cardiomyocyte necrosis induced by ischemia reperfusion (LDH release) ([2]; 1 and 10 μM peptide): Significative necrosis inhibition
cardiomyocyte necrosis induced by ischemia reperfusion (LDH release) ([2]; simulated ischemia 8 h / reperfusion 16 h): inhibited in a dose response manner
metabolised at 48 h, 20 μM [3]: < 20%
